Data taken from patent US11168319B1, “Plant cell culture” (Inari Agriculture Technology, Inc., priority 2017, dated 2021).
Read-outs that look alike come from different tables or passages of the source.

How the values were obtained:
maize B73 protoplasts = details: for Viability (%): 1 mM GSH; for protoplast viability: 288 hours
Protocol: (§1) Separate suspensions of maize B73 and A188 protoplasts (2×10^5 cells per milliliter) were prepared in YPIM B-liquid medium containing various combinations of the added salts calcium chloride, potassium ascorbate, and magnesium chloride or magnesium sulfate. One-half milliliter aliquots of the suspensions were dispensed into a 24-well microtiter plate in the arrangement shown in Table 2, which lists the concentrations of calcium chloride (“Ca”), potassium ascorbate (“A”), and magnesium chloride (“MgCl2”) or magnesium sulfate (“MgSO4”) in millimolar values.
(§2) Viability was judged by Evans blue staining and visualization under a light microscope.
Separate suspensions of maize B73, winter wheat, soy, and strawberry protoplasts (2×10^5 cells per milliliter) were prepared in YPIM B-liquid medium containing calcium chloride at 0, 50, or 100 millimolar. One-half milliliter aliquots of the suspensions were dispensed into a 24-well microtiter plate.
Viability at day 8 of culture was judged by visualization under a light microscope.
Viability at day 13 was judged by Evans blue staining and visualization under a light microscope.
(§3) Separate suspensions of maize B73 protoplasts (2×10^5 cells per milliliter) were prepared in PIM B-liquid medium (identical to YPIM B-medium except with the 6-benzylaminopurine substituted with 0.022 milligrams/L thidiazuron) containing calcium chloride added at 0, 5, 20, 40, 70, or 100 millimolar. One-half milliliter aliquots of the suspensions were dispensed into a 24-well microtiter plate.
Viability was judged by visualization under a light microscope at day 7 and at day 14 of culture.
as §3, with “B73 and A188” for “B73”, “0” for “0, 5, 20, 40, 70,”, “50” for “100”
(§4) Viability was judged by visualization under a light microscope.
(§5) Separate suspensions of maize B73 and A188 protoplasts (2×10^5 cells per milliliter) were prepared in YPIM B-liquid medium containing (a) calcium chloride added at 100 millimolar, or (b) 1 millimolar glutathione, or (c) no added calcium or glutathione. One-milliliter aliquots of the suspensions were dispensed into a 24-well microtiter plate. At 16, 40, 64, and 136 hours of culture, 50-microliter samples were taken for hemocytometer analysis from each well; for the plates containing maize A188 protoplasts, parallel 50-microliter samples were taken from a replicate well at 16, 40, and 64 hours of culture for quantification using a Cellometer cell counter (Nexcelom Bioscience LLC, Lawrence, Mass.).
(§6) Viability was determined by Evans blue staining and quantification using a hemocytometer. Under conditions with high concentrations of calcium, Evans blue can create precipitates that interfere with cell counting; to prevent this, 5 microliters of an EDTA solution was added to the samples from the wells containing 100 millimolar calcium chloride immediately prior to staining.

maize A188 protoplasts = assay: Protoplast viability (Evans blue staining / light microscope / hemocytometer); format: cell-based; details: for Viability (%): 1 mM GSH; for protoplast viability: 288 hours
Protocol: as §1, §2
Separate suspensions of maize A188 protoplasts (2×10^5 cells per milliliter) were prepared in YPIM B-liquid medium containing calcium chloride at 0 or 50 millimolar. One-half milliliter aliquots of the suspensions were dispensed into a 24-well microtiter plate.
as §4
as §3, with “B73 and A188” for “B73”, “0” for “0, 5, 20, 40, 70,”, “50” for “100”
as §5, §6

[1] = tested on: maize (Zea mays) alcohol dehydrogenase ADH1 gene; assay: HDR/NHEJ editing of endogenous gene in maize protoplasts (PCR, KpnI/NdeI); format: cell-based; details: 0.5 mM GSH
Protocol: A ribonucleoprotein (RNP) was prepared with Cas9 nuclease (Aldevron, Fargo, N. Dak.) and a guide RNA complex designed to edit the first ADH1 exon, consisting of a crRNA (ZmADH1-B) with the sequence
Integrated DNA Technologies, Coralville, Iowa); the donor ssDNA contained three phosphorothioate linkages at each terminus (i.e., the three linkages between the most distal four bases on either end of the strand), and contained a KpnI restriction enzyme digestion site at nucleotide positions 67-72 (shown as underlined text). A double-stranded DNA (purchased from Integrated DNA Technologies, Coralville, Iowa) was designed with a forward strand having the sequence
wherein each strand was phosphorylated on the 5′ end and contained two phosphorothioate linkages at each terminus (i.e., the two linkages between the most distal three bases on either end of the strand); this contained an NdeI restriction site located at nucleotide positions 16-21 of the forward strand (SEQ ID NO:16), shown as underlined font. Insertion of this sequence into the first exon of the target gene ADH1 serves as a proxy readout for efficiency of the NHEJ pathway (i.e., non-homologous repair of the expected DSB).
(§7) Transfection procedures were essentially as described in Example 13. In a first experiment, cells were treated with the HDR ssDNA donor containing a Kpn1 restriction site, or with no donor polynucleotide. After transfection with the editing reagents, the washed and pelleted cells were then resuspended in PIM containing 50 millimolar CaCl2, and then plated in 6-well plates coated with 5% calf serum. The plates were sealed with Parafilm™ and allowed to incubate at 37 degrees Celsius for 1 hour. For the hypoxia treatment, the Parafilm™ was removed and the plates were then placed in a hypoxia chamber having about 5% oxygen by volume at 26 degrees Celsius in the dark. For normoxia treatment, the Parafilm™ was kept in place and the plates were incubated at 26 degrees Celsius in a growth chamber in the dark. Cells were harvested 48 hours and HDR editing efficacy was quantitated by PCR analysis using Phusion™ Flash PCR (Thermo Fisher Scientific, Waltham, Mass.).
as §7, with “In” for “Transfection procedures were essentially as described in Example 13. In”, “second” for “first”, “Kpn1 restriction site, or with the NHEJ dsDNA containing an NdeI” for “Kpn1”, “CaCl2, with or without 0.5 millimolar glutathione (GSH),” for “CaCl2,”, “subjected to” for “HDR editing efficacy was quantitated by”

maize B104 protoplasts = assay: Cell division rate by EdU staining (% EdU); details: for EdU staining mean %: Ca^2+ 100 mM, glutathione 0.5 mM, 90 h
[2] = tested on: maize B73 and A188 protoplasts; assay: Protoplast viability, statements pooled for both maize lines; format: cell-based; details: after 288 hours, various ascorbate concentrations (0.1-1 mM)
Protocol: as §1, §2
as §5, with “One-milliliter aliquots of the suspensions were dispensed into a 24-well microtiter plate.” left out
Viability was determined by Evans blue staining and quantification using a hemocytometer. […]

[3] = 100 mM added salt, YPIM B- medium

## N[C@@H](CCC(=O)N[C@@H](CS)C(=O)NCC(=O)O)C(=O)O [glutathione]
Maize B73 protoplasts; 0 hours, hemocytometer
  Viability (%): 90%
Maize B73 protoplasts; 16 hours
  Viability (%): 77%
Maize B73 protoplasts; 40 hours
  Viability (%): 72%
Maize B73 protoplasts; 64 hours
  Viability (%): 48%
Maize B73 protoplasts; 136 hours
  Viability (%): 24%
Maize A188 protoplasts; 0 hours, hemocytometer
  Viability (%): 90%
Maize A188 protoplasts; 16 hours
  Viability (%): 69%
Maize A188 protoplasts; 40 hours
  Viability (%): 50%
Maize A188 protoplasts; 64 hours
  Viability (%): 50%
Maize A188 protoplasts; 136 hours
  Viability (%): 42%
[1]; editing reagents: Null
  % KpnI (HDR): 0.00%
  % NdeI (NHEJ): 0.00%
[1]; editing reagents: RNP only
  % KpnI (HDR): 0.00%
  % NdeI (NHEJ): 0.00%
[1]; editing reagents: RNP plus HDR donor
  % KpnI (HDR): 5.0%
[1]; editing reagents: RNP plus HDR donor, listed as GSH
  % KpnI (HDR): 5.00%
[1]; editing reagents: RNP plus NHEJ donor
  % NdeI (NHEJ): about 15%
[1]; editing reagents: RNP plus NHEJ donor, listed as GSH
  % NdeI (NHEJ): 15.01%
Maize B104 protoplasts; O2 5%
  EdU staining mean %: 18.4%
Maize B104 protoplasts; O2 21%
  EdU staining mean %: 16.9%
Maize B104 protoplasts; addition of 0.5 millimolar glutathione, hypoxic conditions, 100 mM Ca^2+
  change in rate of cell division (% EdU): little change
Maize B104 protoplasts; addition of 0.5 millimolar glutathione, normal atmospheric oxygen, 100 mM Ca^2+
  increase in rate of cell division (% EdU): about 2 fold

## [Cl-].[Cl-].[Mg+2] [magnesium chloride]
Maize B73 protoplasts; [3]
  protoplast viability: much higher viability than any well
Maize A188 protoplasts; [3]
  protoplast viability: about 70%
Plant protoplasts; about 40 millimolar or about 50 millimolar
  plant protoplast viability: Even higher levels of plant protoplast viability
Plant protoplasts; between or about 50 to about 100 millimolar, several titration experiments
  protoplast viability: greatest improvement in protoplast viability
Plant protoplasts; culture medium contains about 30 millimolar
  plant protoplast viability: Beneficial effects

## O=S(=O)([O-])[O-].[Mg+2] [magnesium sulfate]
Maize B73 protoplasts; 50 or 100 mM
  protoplast viability: only a modest improvement
Maize A188 protoplasts; 50 mM added salt, YPIM B- medium
  protoplast viability: 30-40%
Maize A188 protoplasts; 50 or 100 mM
  protoplast viability: only a modest improvement

## O=C1O[C@H]([C@@H](O)CO)C([O-])=C1O.[K+] [potassium ascorbate]
Maize A188 protoplasts; 0.2 millimolar and above added to wells with added calcium
  protoplast viability: slightly decrease viability
[2]
  viability: only slight effects
